# Calls of active or inactive are those of the source.
# Columns and labels:
# [1] = test system: P388/ADR; test: cells; assay type: functional; conditions: Mus musculus
# [2] = test system: SN12K1; test: cells; assay type: functional; conditions: Homo sapiens
# [3] = test system: P388; test: cells; assay type: functional; conditions: Mus musculus
# [4] = target: T1, Endoribonuclease toxin MazF (Escherichia coli K-12, UniProt P0AE70); test: MazF toxin RNase activators, dose response, biochemical, fluorescence, single-stranded RNA substrate, uHTS hits (AID 588481); assay type: functional
# T1 sequence (P0AE70 whole entry): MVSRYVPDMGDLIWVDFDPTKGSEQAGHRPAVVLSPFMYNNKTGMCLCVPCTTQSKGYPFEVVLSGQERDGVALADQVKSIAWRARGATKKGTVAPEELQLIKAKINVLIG
# [5] = target: T1, Endoribonuclease toxin MazF; test: fluorescent RNA oligo signal without MazF, dose response, counter-screen for MazEF activator project, biochemical, fluorescence, single-stranded RNase substrate (AID 588502); assay type: functional
# [6] = target: T2, Probable nicotinate-nucleotide adenylyltransferase (Staphylococcus aureus (strain N315), UniProt P65502); assay type: functional, Staphylococcus aureus subsp. aureus N315;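 as to IC50 Mean: confirmatory dose-response retesting of NadD inhibitor hits first found in an ultra-high-throughput screen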
# T2 sequence (P65502 whole entry): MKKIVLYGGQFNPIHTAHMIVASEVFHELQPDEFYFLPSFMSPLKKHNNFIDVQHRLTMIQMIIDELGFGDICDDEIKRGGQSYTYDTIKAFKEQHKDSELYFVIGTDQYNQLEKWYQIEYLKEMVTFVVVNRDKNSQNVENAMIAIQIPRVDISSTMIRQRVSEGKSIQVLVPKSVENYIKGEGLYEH
# [7] = target: T2, Probable nicotinate-nucleotide adenylyltransferase; assay type: functional, Staphylococcus aureus subsp. aureus N315; conditions: read-out: IC50_Mean
# [8] = target: T3, Type-1 angiotensin II receptor (Homo sapiens, UniProt P30556); test: AT1 receptor antagonists, dose response, selectivity assay for APJ receptor antagonist project, cell-based, uHTS hits (AID 463214); assay type: functional;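 also: antagonist potency against angiotensin II stimulated AT1 response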
# T3 sequence (P30556 whole entry): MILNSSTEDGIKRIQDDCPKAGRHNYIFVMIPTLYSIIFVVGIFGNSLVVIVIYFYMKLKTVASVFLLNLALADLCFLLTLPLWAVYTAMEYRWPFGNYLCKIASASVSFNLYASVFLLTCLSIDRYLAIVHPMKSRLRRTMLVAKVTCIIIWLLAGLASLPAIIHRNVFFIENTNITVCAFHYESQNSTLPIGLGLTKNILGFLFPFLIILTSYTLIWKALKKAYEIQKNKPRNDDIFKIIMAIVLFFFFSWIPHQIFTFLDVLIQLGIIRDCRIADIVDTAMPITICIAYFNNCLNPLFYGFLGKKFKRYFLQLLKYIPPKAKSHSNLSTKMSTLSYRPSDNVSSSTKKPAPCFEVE
# [9] = target: Beta-galactosidase (Escherichia coli, UniProt Q8VNN2); test: PubChem AID 485352; assay type: functional
# Sequence of Beta-galactosidase (Q8VNN2 whole entry): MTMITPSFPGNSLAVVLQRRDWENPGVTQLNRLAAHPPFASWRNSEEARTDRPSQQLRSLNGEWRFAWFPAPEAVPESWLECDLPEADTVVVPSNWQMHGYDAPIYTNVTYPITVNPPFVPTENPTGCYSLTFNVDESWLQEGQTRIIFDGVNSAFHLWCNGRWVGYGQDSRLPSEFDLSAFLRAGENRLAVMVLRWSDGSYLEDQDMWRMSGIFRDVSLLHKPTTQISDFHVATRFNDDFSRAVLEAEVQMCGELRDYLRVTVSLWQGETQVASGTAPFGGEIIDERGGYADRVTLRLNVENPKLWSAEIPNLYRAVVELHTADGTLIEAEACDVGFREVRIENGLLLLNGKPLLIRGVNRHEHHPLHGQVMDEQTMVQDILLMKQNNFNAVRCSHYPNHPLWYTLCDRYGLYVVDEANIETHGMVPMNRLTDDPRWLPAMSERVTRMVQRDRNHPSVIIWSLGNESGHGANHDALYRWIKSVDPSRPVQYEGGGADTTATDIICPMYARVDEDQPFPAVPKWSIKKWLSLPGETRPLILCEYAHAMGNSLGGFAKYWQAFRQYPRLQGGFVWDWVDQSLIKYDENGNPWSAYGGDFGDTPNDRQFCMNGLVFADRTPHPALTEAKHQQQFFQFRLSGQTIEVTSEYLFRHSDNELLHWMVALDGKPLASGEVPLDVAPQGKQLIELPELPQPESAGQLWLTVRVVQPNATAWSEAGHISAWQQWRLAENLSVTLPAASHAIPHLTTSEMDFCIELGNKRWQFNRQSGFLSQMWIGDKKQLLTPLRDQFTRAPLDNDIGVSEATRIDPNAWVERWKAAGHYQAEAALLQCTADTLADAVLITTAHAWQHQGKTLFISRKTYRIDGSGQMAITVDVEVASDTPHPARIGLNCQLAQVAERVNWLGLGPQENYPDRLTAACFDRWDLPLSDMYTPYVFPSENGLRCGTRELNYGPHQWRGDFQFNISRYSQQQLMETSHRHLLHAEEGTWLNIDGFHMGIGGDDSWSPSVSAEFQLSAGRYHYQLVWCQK
# [10] = target: T4, Small ubiquitin-related modifier 1 (Homo sapiens, UniProt P63165); test: inhibitors of SUMO1 peptide binding, dose response, biochemical, fluorescence polarization, uHTS hits (AID 624382); assay type: functional; conditions: read-out: IC50_Mean
# T4 sequence (P63165 whole entry): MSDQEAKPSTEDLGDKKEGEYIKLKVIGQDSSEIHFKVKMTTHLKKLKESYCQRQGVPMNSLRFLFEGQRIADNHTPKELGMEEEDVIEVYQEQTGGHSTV
# [11] = target: T4, Small ubiquitin-related modifier 1; test: inhibitors of SUMO1 partner interactions, dose response, biochemical, FRET (AID 624383); assay type: functional; conditions: read-out: IC50_Mean
# [12] = target: Heat shock protein HSP 90-alpha (Homo sapiens, UniProt P07900); assay type: functional, organism-based
# [13] = test system: Vero; test: cells; assay type: functional; conditions: Chlorocebus sabaeus
# [14] = Fluorescence-based cell-based high throughput dose response assay for inhibitors of the interaction of nucleotide-binding oligomerization domain containing 2 (NOD2) and the receptor-interacting serine-threonine kinase 2 (RIPK2).; assay type: functional; conditions: Homo sapiens
# [15] = target: Cytochrome P450 3A4 (Homo sapiens, UniProt P08684);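 also: CYP3A4 tested as one member of a cytochrome P450 panel screen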
# Sequence of Cytochrome P450 3A4 (P08684 whole entry): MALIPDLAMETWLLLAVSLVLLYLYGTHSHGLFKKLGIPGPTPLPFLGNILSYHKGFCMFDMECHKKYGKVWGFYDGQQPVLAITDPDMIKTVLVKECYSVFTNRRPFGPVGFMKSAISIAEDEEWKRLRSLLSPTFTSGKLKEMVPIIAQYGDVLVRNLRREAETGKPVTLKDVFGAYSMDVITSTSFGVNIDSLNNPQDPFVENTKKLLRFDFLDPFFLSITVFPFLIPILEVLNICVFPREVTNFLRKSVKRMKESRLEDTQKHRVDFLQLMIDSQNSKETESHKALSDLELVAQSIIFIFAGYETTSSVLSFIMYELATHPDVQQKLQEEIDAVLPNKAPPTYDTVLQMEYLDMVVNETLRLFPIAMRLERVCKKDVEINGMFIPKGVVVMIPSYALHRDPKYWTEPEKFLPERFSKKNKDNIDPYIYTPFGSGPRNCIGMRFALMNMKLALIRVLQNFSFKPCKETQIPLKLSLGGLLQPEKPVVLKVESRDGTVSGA
# [16] = target: Cytochrome P450 2D6 (Homo sapiens, UniProt P10635);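 also: CYP2D6 member of a cytochrome P450 panel assay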
# Sequence of Cytochrome P450 2D6 (P10635 whole entry): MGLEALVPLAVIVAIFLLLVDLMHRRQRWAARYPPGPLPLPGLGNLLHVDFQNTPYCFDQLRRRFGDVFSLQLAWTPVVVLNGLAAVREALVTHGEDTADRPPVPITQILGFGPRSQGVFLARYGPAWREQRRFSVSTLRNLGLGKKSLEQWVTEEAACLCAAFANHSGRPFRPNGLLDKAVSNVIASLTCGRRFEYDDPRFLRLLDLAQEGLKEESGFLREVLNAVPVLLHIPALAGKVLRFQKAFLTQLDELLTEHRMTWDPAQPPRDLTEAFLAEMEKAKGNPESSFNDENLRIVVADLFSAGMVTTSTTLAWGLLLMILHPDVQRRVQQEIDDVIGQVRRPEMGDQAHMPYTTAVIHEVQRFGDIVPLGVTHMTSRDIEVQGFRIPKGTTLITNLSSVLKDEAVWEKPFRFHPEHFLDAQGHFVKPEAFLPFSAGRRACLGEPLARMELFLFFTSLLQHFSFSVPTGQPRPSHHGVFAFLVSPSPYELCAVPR
# [17] = target: T5, Cytochrome P450 1A2 (Homo sapiens, UniProt P05177);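 also: PubChem cytochrome P450 panel assay, CYP1A2 panel member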
# T5 sequence (P05177 whole entry): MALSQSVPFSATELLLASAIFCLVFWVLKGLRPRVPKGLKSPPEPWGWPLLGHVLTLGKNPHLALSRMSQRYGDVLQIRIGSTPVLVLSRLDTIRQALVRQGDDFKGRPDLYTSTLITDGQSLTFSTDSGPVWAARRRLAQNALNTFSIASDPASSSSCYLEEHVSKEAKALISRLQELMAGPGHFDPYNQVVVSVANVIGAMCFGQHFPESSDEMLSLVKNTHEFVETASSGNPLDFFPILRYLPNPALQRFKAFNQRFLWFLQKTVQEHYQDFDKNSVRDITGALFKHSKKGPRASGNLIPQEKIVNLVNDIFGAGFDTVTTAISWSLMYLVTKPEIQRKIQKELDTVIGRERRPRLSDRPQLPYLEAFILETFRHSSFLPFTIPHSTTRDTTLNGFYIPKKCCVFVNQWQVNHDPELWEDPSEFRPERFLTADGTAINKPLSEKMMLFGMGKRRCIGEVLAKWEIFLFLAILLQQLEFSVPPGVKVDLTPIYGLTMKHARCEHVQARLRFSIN
# [18] = target: Cytochrome P450 2C9 (Homo sapiens, UniProt P11712)
# Sequence of Cytochrome P450 2C9 (P11712 whole entry): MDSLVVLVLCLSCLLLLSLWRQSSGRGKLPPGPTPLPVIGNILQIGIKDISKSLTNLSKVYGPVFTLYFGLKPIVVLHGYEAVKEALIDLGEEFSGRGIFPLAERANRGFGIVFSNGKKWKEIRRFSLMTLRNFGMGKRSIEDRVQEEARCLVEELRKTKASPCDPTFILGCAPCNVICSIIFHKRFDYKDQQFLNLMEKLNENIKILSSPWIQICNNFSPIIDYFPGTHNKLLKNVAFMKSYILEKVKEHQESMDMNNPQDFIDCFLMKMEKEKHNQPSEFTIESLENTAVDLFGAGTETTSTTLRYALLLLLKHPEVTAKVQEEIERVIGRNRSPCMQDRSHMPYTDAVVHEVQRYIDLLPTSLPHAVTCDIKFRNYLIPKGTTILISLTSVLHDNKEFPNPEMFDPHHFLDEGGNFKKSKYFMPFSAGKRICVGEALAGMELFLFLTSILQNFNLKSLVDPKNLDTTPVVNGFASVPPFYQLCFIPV
# [19] = nonselective inhibitors of cellular cAMP signaling, dose response, counter-screen for MC4R biased antagonist project, cell-based, TR-FRET cAMP detection (AID 602305); assay type: functional;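 also: U2OS cells stimulated with forskolin near its EC80 as the cAMP inducer; potency is for inhibition of forskolin-stimulated cAMP signaling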
# [20] = target: T6, Rac GTPase-activating protein 1 (Homo sapiens, UniProt Q9H0H5); test: MgcRacGAP GTPase-activating activity inhibitors, confirmation, biochemical, ADP Hunter fluorescence, primary and confirmatory (AID 624330); assay type: functional
# T6 sequence (Q9H0H5 whole entry): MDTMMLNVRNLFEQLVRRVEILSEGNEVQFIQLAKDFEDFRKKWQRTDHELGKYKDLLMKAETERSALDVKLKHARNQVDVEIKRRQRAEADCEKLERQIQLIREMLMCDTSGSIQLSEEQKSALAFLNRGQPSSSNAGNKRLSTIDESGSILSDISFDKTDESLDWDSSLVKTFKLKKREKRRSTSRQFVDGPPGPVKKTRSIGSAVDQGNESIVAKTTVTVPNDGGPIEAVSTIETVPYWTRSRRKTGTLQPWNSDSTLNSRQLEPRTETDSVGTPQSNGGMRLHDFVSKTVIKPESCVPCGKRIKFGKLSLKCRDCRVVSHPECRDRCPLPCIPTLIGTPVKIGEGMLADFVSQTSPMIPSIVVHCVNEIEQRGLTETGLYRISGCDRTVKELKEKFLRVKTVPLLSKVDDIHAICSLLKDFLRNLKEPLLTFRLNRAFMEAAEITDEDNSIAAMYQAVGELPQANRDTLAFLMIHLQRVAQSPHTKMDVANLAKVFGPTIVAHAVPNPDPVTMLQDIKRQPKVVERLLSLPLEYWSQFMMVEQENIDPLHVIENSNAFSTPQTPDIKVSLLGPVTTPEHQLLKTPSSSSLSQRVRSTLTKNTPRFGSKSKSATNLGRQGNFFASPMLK
# [21] = target: Nonstructural protein 1 (Influenza A virus, UniProt Q194T2); assay type: functional, Influenza A virus (A/California/07/2009(H1N1))
# Sequence of Nonstructural protein 1 (Q194T2 whole entry): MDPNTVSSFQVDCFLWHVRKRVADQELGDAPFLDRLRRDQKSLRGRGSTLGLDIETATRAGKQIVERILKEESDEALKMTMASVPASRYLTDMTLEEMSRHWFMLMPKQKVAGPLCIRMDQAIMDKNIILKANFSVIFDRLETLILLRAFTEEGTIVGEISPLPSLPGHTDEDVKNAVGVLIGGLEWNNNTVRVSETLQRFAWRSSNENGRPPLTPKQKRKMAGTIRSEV
# [22] = HeLa cell cytotoxicity, dose response, cytotoxicity control for MgcRacGAP inhibitor project (AID 624300); assay type: functional
# [23] = target: Melanocortin receptor 4 (Homo sapiens, UniProt P32245); test: MC4R antagonist potency on cAMP, dose response, cell-based, TR-FRET, biased antagonists (AID 602298); assay type: functional;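 also: antagonist potency against agonist-stimulated cAMP production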
# Sequence of Melanocortin receptor 4 (P32245 whole entry): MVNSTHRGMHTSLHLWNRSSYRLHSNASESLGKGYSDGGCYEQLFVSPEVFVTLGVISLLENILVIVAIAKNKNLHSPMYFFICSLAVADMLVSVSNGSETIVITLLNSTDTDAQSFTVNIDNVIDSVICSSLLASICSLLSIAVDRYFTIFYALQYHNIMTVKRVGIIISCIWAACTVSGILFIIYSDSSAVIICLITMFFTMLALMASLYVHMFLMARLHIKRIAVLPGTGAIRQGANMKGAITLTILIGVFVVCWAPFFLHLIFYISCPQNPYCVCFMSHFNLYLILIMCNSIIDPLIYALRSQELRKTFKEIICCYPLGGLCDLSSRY
structure (smiles),measurement,setting,value
O=C1CCCCN1,GI50,[1],> 1120 µM (inactive)
same,GI50,[2],> 1120 µM (inactive)
same,GI50,[3],764 µM (inactive)
CCOc1ccc2c(c1)S/C(=C\c1cccs1)C(=O)N2,EC50,[4],> 99 µM (inactive)
same,EC50,[5],> 99 µM (inactive)
C/C=C\C=C\C(=O)Nc1cccc(C2=NOC3(C2)C[C@@H](C(N)=O)N(C(=O)C(c2ccccc2)c2ccccc2)C3)c1 (stereo partly drawn),IC50,[6],11.9 µM (active)
same,IC50,[7],22.8 µM (active)
Cc1nn(CCC(=O)NNC(S)=NCC(C)C)c(C)c1Br,IC50,[8],15.9 µM (active)
same,EC50,[9],32.1 µM (active)
O=c1[nH]c(=O)c2nc3c4ccccc4c4ccccc4c3nc2[nH]1,IC50,[10],> 66.6 µM (inactive)
same,IC50,[11],2.56 µM (active)
COc1cc(/C=C/[N+](=O)[O-])ccc1OC(=O)c1cccnc1,IC50,[8],5.87 µM (active)
same,AC50,[12],4.36 µM (active)
same,EC50,[9],> 40 µM (inactive)
same,CC50,[13],17.5 µM (active)
same,IC50,[14],1.82 µM (active)
Cc1ccc(-c2cc(C#N)c(=O)n(Cc3c(Cl)cccc3Cl)c2)cc1,EC50,[4],> 99 µM (inactive)
same,EC50,[5],41.9 µM (inactive)
COc1ccc(NS(=O)(=O)c2ccc(NC(=S)NC(=O)/C=C/c3ccccc3)cc2)nn1,IC50,[6],6.28 µM (active)
same,IC50,[7],40.6 µM (active)
COC(=O)c1ccc(OCC(=O)Nc2nn(-c3ccccc3)nc2C(N)=O)cc1,IC50,[10],> 66.6 µM (inactive)
same,IC50,[11],3.99 µM (active)
N#Cc1cccc(NC(=O)N2CC3(CCN(C(=O)Oc4ccccc4)CC3)C2)c1,AC50,[15],inconclusive
same,AC50,[16],39.8 µM (inconclusive)
same,AC50,[17],15.8 µM (inconclusive)
same,AC50,[18],15.8 µM (inconclusive)
COc1cc(NS(=O)(=O)c2ccc(NC(=S)NC(=O)C3CCCC3)cc2)nc(OC)n1,IC50,[8],> 40 µM (not active)
same,EC50,[9],> 40 µM (inactive)
CCOc1ccc2c(ccc(/C=C/c3cc(C)c4cccnc4c3O)[n+]2C)c1,IC50,[6],8.71 µM (active)
same,IC50,[19],> 64.5 µM (inactive)
same,IC50,[20],34.5 µM (active)
same,IC50,[7],11.7 µM (active)
same,AC50,[12],0.276 µM (active)
same,IC50,[21],0.676 µM (active)
same,CC50,[13],13.1 µM (active)
same,CC50,[22],95.9 µM (active)
same,IC50,[23],> 2.39 µM (active)
O=NN1C(c2ccccc2)CNC(=O)CC1c1ccccc1 (stereo not drawn),GI50,[1],22.8 µM (inactive)
same,GI50,[2],39.2 µM (inactive)
same,GI50,[3],21.8 µM (inactive)
O=C(CSc1nnc(SCc2ccccc2)s1)N/N=C/c1c[nH]c2ccccc12,IC50,[10],> 66.6 µM (inactive)
same,IC50,[11],10.4 µM (active)
CC(=O)O[C@H]1C(=O)O[C@@H]2C[C@H]3C(C)=CC(=O)[C@@H](O)[C@]3(C)[C@H]3[C@@]4(O)OC[C@]32[C@@H]1[C@@H](C)[C@H]4O,GI50,[1],1.66 µM (inactive)
same,GI50,[2],0.0223 µM (active)
same,GI50,[3],0.133 µM (active)
CS(=O)(=O)OCCCCOS(C)(=O)=O [BUSULFAN],GI50,[1],109 µM (inactive)
same,GI50,[2],215 µM (inactive)
same,GI50,[3],117 µM (inactive)
